In patent publication US20100210536A1, “USE OF LEPTIN (22-56 ) AS A THERAPEUTIC AGENT” (priority 2007, published 2010):
Where no end group is shown, it is not given here.

Test system: drug-resistant Mycobacterium tuberculosis
Conditions: peptide 10 micrograms per ml, seven days

VPIQKVQDDTKTLIKTIVTRINDISHTQSVSSKQK-OH [Leptin (22-56)]
% inhibition: 0.0%
